# Measured values taken from patent publication US20130035326A1 (AMBIT BIOSCIENCES CORPORATION, priority 2009, published 2013).
# How the values were obtained:
# KIT kinase = target: T1, KIT kinase (Homo sapiens, UniProt P10721); test: Competition binding assay, KIT Kd
# T1 construct: made in house; host or cells: T7 phage display or HEK-293 cells
# How it was run: (§1)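 Kinases, either T7 phage fusions or HEK-293-expressed and DNA-tagged, competed for immobilised biotinylated affinity ligand against test compound, 1 h at RT in binding buffer with 6 mM DTT. Bound kinase eluted with 0.5 μM free ligand and quantified by qPCR; Kd from 11-point threefold dilutions.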
# MV4-11 cells = test: MV4-11 cell proliferation assay (Alamar Blue); type: cell-based; conditions: Homo sapiens, MV4-11, 72 h, 3 days incubation
# How it was run: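 Viability readout: Alamar Blue fluorescence, ex 560/em 590 nm, 3 h after reagent addition, after 3-day exposure of 64,000 MV4-11 cells per well to a 9-point half-log compound series in 0.5% FBS Iscove's. IC50 from duplicate averages, as 50% proliferation inhibition relative to negative control.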
# FLT3 kinase = target: T2, FLT3 kinase (Homo sapiens, UniProt P36888); test: Competition binding assay, FLT3 Kd
# T2 construct: made in house; host or cells: T7 phage display or HEK-293 cells
# T2 sequence (P36888 27-993): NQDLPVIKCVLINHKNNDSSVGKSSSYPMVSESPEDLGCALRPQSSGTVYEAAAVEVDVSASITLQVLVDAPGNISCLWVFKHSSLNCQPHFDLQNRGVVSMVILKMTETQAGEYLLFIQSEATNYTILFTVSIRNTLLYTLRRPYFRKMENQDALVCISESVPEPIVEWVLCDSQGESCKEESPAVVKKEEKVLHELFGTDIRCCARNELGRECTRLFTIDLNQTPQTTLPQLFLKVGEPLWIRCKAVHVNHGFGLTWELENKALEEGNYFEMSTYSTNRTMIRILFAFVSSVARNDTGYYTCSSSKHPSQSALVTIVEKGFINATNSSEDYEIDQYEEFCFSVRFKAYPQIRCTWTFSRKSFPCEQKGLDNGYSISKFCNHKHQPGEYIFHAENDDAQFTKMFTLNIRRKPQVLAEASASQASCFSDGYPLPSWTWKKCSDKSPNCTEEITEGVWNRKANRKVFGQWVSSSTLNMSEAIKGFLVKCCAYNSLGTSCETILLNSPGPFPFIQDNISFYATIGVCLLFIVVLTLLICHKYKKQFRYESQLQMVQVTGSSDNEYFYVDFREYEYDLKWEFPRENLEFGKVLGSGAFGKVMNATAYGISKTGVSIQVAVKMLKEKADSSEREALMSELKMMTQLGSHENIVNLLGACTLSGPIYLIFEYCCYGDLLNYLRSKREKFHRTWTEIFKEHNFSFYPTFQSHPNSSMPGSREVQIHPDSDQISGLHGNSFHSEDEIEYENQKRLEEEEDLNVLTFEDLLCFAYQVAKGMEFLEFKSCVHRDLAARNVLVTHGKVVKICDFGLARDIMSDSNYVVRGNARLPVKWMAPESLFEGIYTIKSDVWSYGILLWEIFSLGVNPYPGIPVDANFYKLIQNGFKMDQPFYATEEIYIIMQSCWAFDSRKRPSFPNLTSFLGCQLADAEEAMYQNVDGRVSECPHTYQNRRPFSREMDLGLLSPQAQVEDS
# How it was run: as §1
# CSF-1R kinase = target: T3, CSF-1R kinase (Homo sapiens, UniProt P07333); test: Competition binding assay, CSF-1R Kd
# T3 construct: made in house; host or cells: T7 phage display or HEK-293 cells
# How it was run: as §1
# [1] = target: kinase panel containing either 359 or 386 distinct kinases; test: Selectivity score S10 from competition binding against a panel of kinases; conditions: compounds at 10 μM; for Kinase specificty: S(10)-386 panel: panel of 386 distinct kinases; for Kinase specificty: S(10)-359 panel: panel of 359 distinct kinases
# Description: Competition binding assays used herein were developed, validated and performed as described in Fabian et al., Nature Biotechnology 2005, 23,329-336. Kinases were produced as fusions to T7 phage (See, Fabian et al. or WO04/015142) or alternatively, the kinases were expressed in HEK-293 cells and subsequently tagged with DNA for PCR detection (See, WO08/005,310). For the binding assays, streptavidin-coated magnetic beads were treated with biotinylated affinity ligands for 30 min at room temperature to generate affinity resins. The liganded beads were blocked with excess biotin and washed with blocking buffer (SeaBlock (Pierce), 1% BSA, 0.05% Tween 20, 1 mM DTT) to remove unbound ligand and to reduce non-specific binding. Binding reactions were assembled by combining kinase, liganded affinity beads, and test compounds in 1× binding buffer (20% SeaBlock, 0.17×PBS, 0.05% Tween 20, 6 mM DTT). Test compounds were prepared as 100× stocks in DMSO and diluted into the aqueous environment. Kds were determined using an eleven point threefold serial dilutions. DMSO or control compounds were was added to control assays lacking a test compound. Primary screen assays were performed in polypropylene 384-well plates in a final volume of 20-40 μL, while Kd determinations were performed in polystyrene 96-well plates in a final volume of 135 μL. The assay plates were incubated at room temperature with shaking for 1 hour to allow the binding reactions to reach equilibrium, and the affinity beads were washed extensively with wash buffer (1×PBS, 0.05% Tween 20) to remove unbound protein. The beads were then resuspended in elution buffer (1×PBS, 0.05% Tween 20, 0.5 μM non-biotinylated affinity ligand) and incubated at room temperature with shaking for 30 min. The kinase concentration in the eluates was measured by quantitative PCR.
# A selectivity score (S10) is a quantitative measure of selectivity of a compound against a panel of kinases. An S10 was calculated for a compound by dividing the number of kinases found to have a percent of control (DMSO) less than 10 by the total number of distinct kinases tested (excluding mutant variants). Percent of control (POC) is calculated by subtracting the signal of the control compound (POC=0) from the signal of the test compound and dividing the outcome by the signal of DMSO (POC=100) minus the signal of the control compound. For the compounds disclosed herein, S10 scores were obtained by testing the compounds at 10 μM concentration in a kinase panel containing either 359 or 386 distinct kinases.
# T1 sequence (P10721 26-976): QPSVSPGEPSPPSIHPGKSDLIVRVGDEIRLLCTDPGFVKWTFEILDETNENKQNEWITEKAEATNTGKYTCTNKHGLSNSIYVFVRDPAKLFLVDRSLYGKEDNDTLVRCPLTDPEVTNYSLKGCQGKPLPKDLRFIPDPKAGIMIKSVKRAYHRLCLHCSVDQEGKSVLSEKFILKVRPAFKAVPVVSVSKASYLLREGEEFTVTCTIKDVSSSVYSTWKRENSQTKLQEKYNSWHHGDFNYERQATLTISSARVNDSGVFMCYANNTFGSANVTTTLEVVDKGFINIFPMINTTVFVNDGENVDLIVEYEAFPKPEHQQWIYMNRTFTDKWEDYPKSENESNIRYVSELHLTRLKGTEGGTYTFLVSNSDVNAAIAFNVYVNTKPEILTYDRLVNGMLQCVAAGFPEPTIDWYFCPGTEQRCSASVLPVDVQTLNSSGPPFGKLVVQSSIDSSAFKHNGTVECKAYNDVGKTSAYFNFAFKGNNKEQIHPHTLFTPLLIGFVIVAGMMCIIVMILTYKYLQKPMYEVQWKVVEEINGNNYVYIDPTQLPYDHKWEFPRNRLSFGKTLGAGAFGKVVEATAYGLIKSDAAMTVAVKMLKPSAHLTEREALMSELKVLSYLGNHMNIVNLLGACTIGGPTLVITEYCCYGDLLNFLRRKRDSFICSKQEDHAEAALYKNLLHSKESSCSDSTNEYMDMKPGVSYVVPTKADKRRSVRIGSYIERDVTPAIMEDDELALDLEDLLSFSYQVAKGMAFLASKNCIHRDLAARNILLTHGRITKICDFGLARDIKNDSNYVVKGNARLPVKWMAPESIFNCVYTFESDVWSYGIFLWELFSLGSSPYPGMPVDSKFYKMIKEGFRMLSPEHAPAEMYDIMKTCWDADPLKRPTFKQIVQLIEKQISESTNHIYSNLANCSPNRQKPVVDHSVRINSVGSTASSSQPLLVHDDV
# T3 sequence (P07333 20-972): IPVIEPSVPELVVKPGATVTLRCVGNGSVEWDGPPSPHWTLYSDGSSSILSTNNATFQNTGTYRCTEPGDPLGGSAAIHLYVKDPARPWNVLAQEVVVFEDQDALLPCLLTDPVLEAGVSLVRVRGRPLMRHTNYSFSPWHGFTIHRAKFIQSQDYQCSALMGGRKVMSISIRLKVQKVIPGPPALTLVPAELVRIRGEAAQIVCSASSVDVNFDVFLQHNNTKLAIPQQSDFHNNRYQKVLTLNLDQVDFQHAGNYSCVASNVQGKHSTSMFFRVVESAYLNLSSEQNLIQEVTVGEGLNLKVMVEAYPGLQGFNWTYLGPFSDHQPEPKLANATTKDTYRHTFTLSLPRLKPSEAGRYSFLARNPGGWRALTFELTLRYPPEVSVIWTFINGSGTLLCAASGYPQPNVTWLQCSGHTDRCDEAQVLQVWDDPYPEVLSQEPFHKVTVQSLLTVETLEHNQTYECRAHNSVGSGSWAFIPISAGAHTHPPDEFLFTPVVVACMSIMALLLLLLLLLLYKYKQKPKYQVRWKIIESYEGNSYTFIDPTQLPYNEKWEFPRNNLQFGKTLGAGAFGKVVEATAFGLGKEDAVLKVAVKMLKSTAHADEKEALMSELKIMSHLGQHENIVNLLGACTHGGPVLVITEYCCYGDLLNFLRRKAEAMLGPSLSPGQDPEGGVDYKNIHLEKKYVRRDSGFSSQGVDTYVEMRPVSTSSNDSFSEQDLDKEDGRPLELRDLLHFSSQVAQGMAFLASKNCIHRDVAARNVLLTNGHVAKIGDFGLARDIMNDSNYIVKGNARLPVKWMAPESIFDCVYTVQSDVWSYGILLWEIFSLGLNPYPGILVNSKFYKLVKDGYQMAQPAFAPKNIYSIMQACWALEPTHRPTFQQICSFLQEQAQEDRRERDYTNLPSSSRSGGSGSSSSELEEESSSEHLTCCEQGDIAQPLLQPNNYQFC
SMILES,Kd (KIT kinase),IC50 (MV4-11 cells),Kd (FLT3 kinase),Kd (CSF-1R kinase),Kinase specificty: S(10)-386 panel [1],Kinase specificty: S(10)-359 panel [1]
"CC(C)(C)c1cc(NC(=O)Cc2ccc(-c3cnc(N)cc3Cl)cc2)no1.CS(=O)(=O)O [Example 150, 5-(4-(2-(5-tert-butylisoxazol-3-ylamino)-2-oxoethyl)phenyl)-4-chloropyridin-2-aminium methanesulfonate]",1 to 10 nM,1 to 10 nM,≤ 1 nM,≤ 10 nM,A (A≦0.1),
"CC(C)(C)c1cc(NC(=O)Cc2ccc(-c3cnc(N)c(C(F)(F)F)c3)cc2)no1.CS(=O)(=O)O [Example 116, 5-(4-(2-(5-tert-butylisoxazol-3-ylamino)-2-oxoethyl)phenyl)-3-(trifluoromethyl)pyridin-2-aminium methanesulfonate]",1 to 10 nM,≤ 1 nM,≤ 1 nM,≤ 10 nM,B (0.1<B≦0.2 nM),
"CC(C)(C)c1cc(NC(=O)Nc2ccc(-c3cnc(N)c(CO)c3)cc2)no1 [Example 8, 1-(4-(6-amino-5-(hydroxymethyl)pyridin-3-yl)phenyl)-3-(5-tert-butylisoxazol-3-yl)urea]",1 to 10 nM,> 500 nM,1 to 10 nM,≤ 10 nM,,A (A≦0.1)
"CS(=O)(=O)O.Nc1ncc(-c2ccc(CC(=O)Nc3cc(C4(C(F)(F)F)CC4)on3)cc2)cc1Cl [Example 133, 3-chloro-5-(4-(2-oxo-2-(5-(1-(trifluoromethyl)cyclopropyl)isoxazol-3-ylamino)ethyl)phenyl)pyridin-2-aminium methanesulfonate]",1 to 10 nM,≤ 1 nM,≤ 1 nM,≤ 10 nM,B (0.1<B≦0.2 nM),
"CS(=O)(=O)O.Nc1ccc(-c2ccc(CC(=O)Nc3cc(C4(C(F)(F)F)CC4)on3)c(F)c2)cn1 [Example 139, 5-(3-fluoro-4-(2-oxo-2-(5-(1-(trifluoromethyl)cyclopropyl)isoxazol-3-ylamino)ethyl)phenyl)pyridin-2-aminium methanesulfonate]",1 to 10 nM,≤ 1 nM,≤ 1 nM,≤ 10 nM,B (0.1<B≦0.2 nM),
CC1(c2cc(NC(=O)Cc3ccc(-c4cnc(N)c(C(F)(F)F)c4)cc3)no2)CC1 [Example 161],1 to 10 nM,≤ 1 nM,≤ 1 nM,≤ 10 nM,B (0.1<B≦0.2 nM),
"CC(C)(C)c1cc(NC(=O)Cc2ccc(-c3cnc4[nH]c(=O)[nH]c4c3)cc2)no1 [Example 147, N-(5-tert-butylisoxazol-3-yl)-2-(4-(2-oxo-2,3-dihydro-1H-imidazo[4,5-b]pyridin-6-yl)phenyl)acetamide]",1 to 10 nM,≤ 1 nM,1 to 10 nM,≤ 10 nM,B (0.1<B≦0.2 nM),
CC(C)(C)c1cc(NC(=O)Nc2ccc(-c3cnc(NCCN4CCOCC4)nc3)cc2F)no1 [Example 59],≤ 1 nM,1 to 10 nM,≤ 1 nM,≤ 10 nM,,B (0.1<B≦0.2 nM)
"CC(C)(C)c1cc(NC(=O)Nc2ccc(-c3cnc(OCCN4CCOCC4)nc3)cc2)no1 [Example 47, 1-(5-tert-Butyl-isoxazol-3-yl)-3-{4-[2-(2-morpholin-4-yl-ethoxy)-pyrimidin-5-yl]-phenyl}-urea]",1 to 10 nM,10 to 100 nM,1 to 10 nM,10 to 100 nM,,A (A≦0.1)

# Continued, values first:
Kd (KIT kinase),IC50 (MV4-11 cells),Kd (FLT3 kinase),Kd (CSF-1R kinase),Kinase specificty: S(10)-386 panel [1],Kinase specificty: S(10)-359 panel [1],SMILES
≤ 1 nM,≤ 1 nM,≤ 1 nM,≤ 10 nM,A (A≦0.1),,"CCNc1ccc(-c2ccc(CC(=O)Nc3cc(C(C)(C)C)on3)cc2)cn1.CS(=O)(=O)O [Example 111, 5-(4-(2-(5-tert-butylisoxazol-3-ylamino)-2-oxoethyl)phenyl)-N-ethylpyridin-2-aminium methanesulfonate]"
≤ 1 nM,≤ 1 nM,≤ 1 nM,≤ 10 nM,,B (0.1<B≦0.2 nM),"Cc1nc(N)ncc1-c1ccc(NC(=O)Nc2cc(C(C)(C)C)on2)cc1 [Example 49, 1-(4-(2-amino-4-methylpyrimidin-5-yl)phenyl)-3-(5-tert-butylisoxazol-3-yl)urea]"
≤ 1 nM,≤ 1 nM,≤ 1 nM,≤ 10 nM,B (0.1<B≦0.2 nM),,CC1(c2cc(NC(=O)Cc3ccc(-c4cnc(N)c(Cl)c4)cc3)no2)CC1 [Example 160]
≤ 1 nM,1 to 10 nM,≤ 1 nM,≤ 10 nM,B (0.1<B≦0.2 nM),,"Nc1ccc(-c2ccc(CC(=O)Nc3cc(C4(C(F)F)CC4)on3)cc2)cn1 [Example 149, 2-(4-(6-aminopyridin-3-yl)phenyl)-N-(5-(1-(difluoromethyl)cyclopropyl)isoxazol-3-yl)acetamide]"
≤ 1 nM,10 to 100 nM,≤ 1 nM,≤ 10 nM,A (A≦0.1),,"CC1(c2cc(NC(=O)Nc3ccc(-c4ccc(N)nc4)cn3)no2)CC1.CS(=O)(=O)O [Example 104, 6′-(3-(5-(1-methylcyclopropyl)isoxazol-3-yl)ureido)-3,3′-bipyridin-6-aminium methanesulfonate]"
≤ 1 nM,1 to 10 nM,≤ 1 nM,≤ 10 nM,A (A≦0.1),,"CC1(c2cc(NC(=O)Cc3ccc(-c4ccc(N)nc4F)cc3)no2)CC1 [Example 134, 2-(4-(6-amino-2-fluoropyridin-3-yl)phenyl)-N-(5-(1-methylcyclopropyl)isoxazol-3-yl)acetamide]"
≤ 1 nM,100 to 500 nM,1 to 10 nM,≤ 10 nM,,A (A≦0.1),"O=C(Cc1cccc(C(F)(F)F)c1)Nc1ccc(-c2cnc(NC3CC3)nc2)cn1 [Example 66, N-(5-(2-(cyclopropylamino)pyrimidin-5-yl)pyridine-2-yl)-2-(3-(trifluoromethyl)phenyl)acetamide]"
≤ 1 nM,1 to 10 nM,≤ 1 nM,≤ 10 nM,B (0.1<B≦0.2 nM),,COc1cc(-c2ccc(CC(=O)Nc3cc(C4(C)CC4)on3)cc2)cnc1N [Example 164]
